Laboratory results reported in article PMC10291556 (Journal of Medicinal Chemistry, 2023).

Key:
[1] = NMR reduction studies with GSH or ascorbic acid; format: physicochemical; conditions: up to 10 equiv of reducing agent, 48 h, 37 °C, PBS/D2O, 1H NMR
Protocol: Thus, all compounds were >95% pure by NMR and HPLC analyses. NMR reduction studies were also undertaken where excess equivalents of reducing agents GSH or ascorbic acid were added to the sample before undertaking multiple NMR measurements over a 48 h period at 37 °C. These reducing agents were chosen to mimic the reducing capacity of the […] environment of the blood and tissue. […] However, once inside the cell, reactions with intracellular components might be induced, rendering the prodrug biodegradable. […] Therefore, the complex is unlikely to be reduced in the bloodstream. Monitoring the Pt(IV) peak, falling as the Pt(II) peak rises, would be ideal for further proof of the stability of these complexes, but the Pt(IV) resonance falls outside the detectable range of our instrument.
One equivalent of the complex was dissolved in 500 μL of PBS using D2O for a ^1H NMR experiment performed on a Bruker AVANCE 400 MHz NMR spectrometer, with 50 dummy scans (approx. 5 min) to allow the sample to reach 37 °C before 128 scans were taken. The sample was removed, and the reducing agent was quickly added. Then the NMR measurement was taken again (50 dummy scans followed by 128 scans). The NMR was subsequently set up to measure one 128-scan experiment after another for 4 h, at which point the sample was removed, stored, and scanned again after 24 and 48 h. […]

[2] = test system: HeLa cells; assay: Glucose consumption; format: cell-based, human; conditions: 24 h, IC50 concentrations
Protocol: Figure 3 (A) Lactate production. Relative lactate concentration in medium following a 6 h treatment of HeLa cells with the investigated compounds at concentrations corresponding to 5× IC50. […] Data represents mean ± SD, n = 2–4; asterisks indicate a statistically significant difference from the untreated control (*p < 0.01, **p < 0.005, ***, ***p < 0.001).
Glucose concentration in the culture medium prior to and after the treatment was determined with an Amplex Red Glucose/Glucose Oxidase Assay Kit (Invitrogen) following the producer’s protocol. Glucose consumption was normalized to final cell counts. The glucose amount consumed by the non-treated control was taken at 100%.

Compound	stability towards reduction by GSH or ascorbic acid [1]	glucose consumption [2]
Cc1c(C)c2c3c4c1=CC=C[N]4[Pt][N]3C=CC=2.NCCNC(=O)Cc1ccccc1Nc1c(Cl)cccc1Cl.NCCNC(=O)Cc1ccccc1Nc1c(Cl)cccc1Cl.N[C@H]1CCCC[C@@H]1N [complex 4, Pt^IV56MeSS(DCF)2]	the compound had not been reduced	reduction in glucose consumption
Cc1c(C)c2c3c4c1=CC=C[N]4[Pt]([Cl])[N]3C=CC=2.NCCNC(=O)Cc1ccccc1Nc1c(Cl)cccc1Cl.N[C@H]1CCCC[C@@H]1N [complex 3, Pt(IV)56MESSenDCFCl]		reduction in glucose consumption
